Counter-ions that a name gives are not always drawn.
molecular target: recombinant MARK3 enzyme (Homo sapiens (Human), UniProt P27448); assay: MARK 3 Assay (HTRF, Cdc25C biotinylated peptide substrate); type: biochemical; settings: MARK3, 10 μM ATP, 1 μM peptide substrate, 2 hours at 25° C.
Experimental: MARK3 activity was assayed in vitro using a Cdc25C biotinylated peptide substrate (Cell Signalling Technologies). The phosphopeptide product was quantitated using a Homogenous Time-Resolved Fluorescence (HTRF) assay system (Park et al., 1999, Anal. Biochem. 269:94-104). The reaction mixture contained 50 mM HEPES/Tris-HCl, pH 7.4; […], 5 mM MgCl2, 0.2 mM NaVO4, 5 mM 3-glycerol phosphate, 0.1% Tween-20, 2 mM dithiothreitol, 0.1% BSA, 10 μM ATP, 1 μM peptide substrate, and 10 nM recombinant MARK3 enzyme (University of Dundee) in a final volume of 12 μL. The buffer additionally contained protease inhibitor cocktail (Roche EDTA-free, 1 tab per 50 ml). The kinase reaction was incubated for 2 hours at 25° C., and then terminated with 3 μl Stop/Detection Buffer (50 mM HEPES, pH 7.0, 16.6 mM EDTA, 0.5M KF, 0.1% Tween-20, 0.1% BSA, 2 μg/ml SLX^ent 665 (CISBIO), and 2 μg/mL Eu^3+ cryptate label antibody (CISBIO)). The reaction was allowed to equilibrate overnight at 0° C., and relative fluorescent units were read on an HTRF enabled plate reader (e.g. TECAN GENios Pro).
Inhibitor compounds were assayed in the reaction described above to determine compound IC50s. Aliquots of compound dissolved in DMSO were added to the reaction wells in a third-log dilution series covering a range of 1 nM to 10 μM. Relative phospho substrate formation, read as HTRF fluorescence units, was measured over the range of compound concentrations and a titration curve generated.

recombinant MARK3 enzyme, sequence (P27448 whole entry, species assumed): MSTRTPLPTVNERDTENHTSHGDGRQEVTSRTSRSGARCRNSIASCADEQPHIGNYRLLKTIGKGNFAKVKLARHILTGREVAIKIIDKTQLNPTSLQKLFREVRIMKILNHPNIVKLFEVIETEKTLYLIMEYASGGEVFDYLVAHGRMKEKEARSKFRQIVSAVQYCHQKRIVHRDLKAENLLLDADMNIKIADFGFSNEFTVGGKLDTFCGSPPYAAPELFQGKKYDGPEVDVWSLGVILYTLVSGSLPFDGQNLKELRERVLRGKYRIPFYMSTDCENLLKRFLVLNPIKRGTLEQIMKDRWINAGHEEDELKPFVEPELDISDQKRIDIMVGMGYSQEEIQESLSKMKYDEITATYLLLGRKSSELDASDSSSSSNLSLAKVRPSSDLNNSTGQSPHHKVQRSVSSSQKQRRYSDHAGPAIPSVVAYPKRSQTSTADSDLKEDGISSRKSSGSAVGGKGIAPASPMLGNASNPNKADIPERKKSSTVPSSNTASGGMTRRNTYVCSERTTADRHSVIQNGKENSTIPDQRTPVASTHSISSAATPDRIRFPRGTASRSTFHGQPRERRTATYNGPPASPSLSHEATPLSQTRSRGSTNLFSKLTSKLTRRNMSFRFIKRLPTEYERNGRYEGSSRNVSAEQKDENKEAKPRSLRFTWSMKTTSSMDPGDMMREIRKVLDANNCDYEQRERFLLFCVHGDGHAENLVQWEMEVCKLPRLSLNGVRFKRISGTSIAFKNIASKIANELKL

Row | IC50 [nM] | SMILES
1 | 140 | CCc1sc(C(=O)N[C@@H]2[C@H](N)CCCC2(F)F)cc1-c1cnc2cc(C(F)(F)F)cnn12 [Example 24, N-[(1R,6R)-6-amino-2,2-difluorocyclohexyl]-5-ethyl-4-[7-(trifluoromethyl)imidazo[1,2-b]pyridazin-3-yl]thiophene-2-carboxamide]
2 | 0.5 | N[C@@H]1CCCC(F)(F)[C@@H]1NC(=O)c1cc(-c2cnc3cc(-c4ccc(F)cc4)cnn23)cs1 [Example 8, (1R,2R)-3,3-difluoro-2-[({4-[7-(4-fluorophenyl)imidazo[1,2-b]pyridazin-3-yl]thiophen-2-yl}carbonyl)amino]cyclohex-anaminium trifluoroacetate]
3 | 15 | N[C@H]1CCCC(F)(F)[C@@H]1NC(=O)c1cc(-c2cnc3ccccn23)cs1 [Example 14, N-[(1R,6S)-6-amino-2,2-difluorocyclohexyl]-4-(imidazo[1,2-a]pyridin-3-yl)thiophene-2-carboxamide]
4 | 720 | N[C@H]1CCCC(F)(F)[C@@H]1NC(=O)c1nc(-c2cnc3ccccn23)c(Cl)s1 [Example 29, N-[(1R,6S)-6-Amino-2,2-difluorocyclohexyl]-5-chloro-4-(imidazo[1,2-a]pyridin-3-yl)-1,3-thiazole-2-carboxamide]
5 | 20 | Cc1sc(C(=O)N[C@@H]2[C@H](N)CCCC2(F)F)cc1-c1cnc2cccnn12 [Example 1, N-[(1R,6R)-6-Amino-2,2-difluorocyclohexyl]-4-(imidazo[1,2-b]pyridazin-3-yl)-5-methylthiophene-2-carboxamide]

system: phosphorylation of Tau at S262 in primary cell culture of rat cortical neurons induced by Okadaic acid; assay: pTau(S262) Cell Biochemical and Functional Assay; type: cell-based; settings: Cortical neurone, Okadaic acid 200 nM, 1.5 hrs, read-out: IC50, inhibition of phosphorylation of Tau at S262
Experimental: The cell biochemical potency of the below described MARK inhibitors was evaluated by measuring their ability to block the phosphorylation of Tau at S262 in primary cell culture of rat cortical neurons induced by the action of Okadaic acid.
• 1. Store tissue at 4° C. (1-2 days) until ready to use. • 2. When ready to plate, make up 2 mL of enzymatic solution in Hibernate-Ca containing 1× papain. Filter sterile solution with 0.2 μm filter. • 3. Transfer 2 mL of medium from tissue tube into 15 mL falcon tube while not disturbing tissue. Save media. • 4. Add 2 mL enzymatic media (2) to tissue. Incubate for 30′ at 37° C. • 5. Remove enzymatic solution while not disturbing tissue. Add back 1 mL of media from (3). • 6. Using pipettor with sterile plastic tip, triturate ˜10 times until most of the cells are dispersed. • 7. Let undispersed pieces settle by gravity 1 minute. • 8. Transfer dispersed cells (supernatant) into 15 mL falcon tube containing 1 mL media from (3). Gently mix cells by swirling. • 9. Spin cells at 1,100 rpm for 1 minute. Remove supernatant. • 10. Flick tube to loosen cell pellet. Resuspend cells in 5 mL of NB. • 11. Transfer to new 50 mL falcon tube using 40 μm cell strainer. Rinse 15 mL falcon tube with 5 mL media, add to strainer. • 12. Count cells using hemacytometer. • 13. Dilute cells to 7,000 cells/100 μL/well in NB. • 14. Incubate cells at 37° C. with 5% CO2. • a. 4 DIV: Replace ½ volume (50 μL) NB per well. • b. 6 DIV: Neurite Assay. Tissue Culture/Compound Treatment
Primary rat cortical neurons plated @ 6Kcells/well in 384-well black/clear bottom Poly D-Lysine coated BD Falcon Biocoat plates. • Media: Neurobasal+1× B27+2 mM L-Glutamine (+10% FBS) at time of plating
Cells maintained at 37° C. and 5% CO2 for *6 days in culture, w/½ media change every 3-4 days.
Compound treatment: • Prepare first plate: 200× compound in 100% DMSO with subsequent 3 fold serial dilution • Prepare intermediate plate: 1:40 dilution of 200× compound in media (2.5% DMSO) • Add 5× compound to cell in media at 1:5 dilution (0.5% final DMSO) • Incubate for 30 min. at 37° C.
Okadaic Acid (OA) Treatment: • Dilute OA stock (240 μM in 100% DMSO) to 6× final concentration in media (0.5% DMSO) • Add 6× OA to cells at 1:6 dilution (200 nM final). Incubate for 1.5 hrs. at 37° C. Fix and Immunostaining
Fix: 1% PFA, diluted in PBS • Wash 1× with PBS, residual 30 μl/well.
Add 30 μL/well warmed 2% PFA and incubate 30 min. at RT (1% PFA final)
Wash 3× with PBS, 300/well residual […]

Row | SMILES | IC50 [nM]
6 | Cc1sc(C(=O)N[C@H]2CCS(=O)(=O)C[C@H]2N)cc1-c1cnc2cccnn12 (relative stereo) [Example 10, N-[cis-3-amino-1,1-dioxidotetrahydro-2H-thiopyran-4-yl]-4-(imidazo[1,2-b]pyridazin-3-yl)-5-methylthiophene-2-carboxamide] | > 10000
7 | Cc1sc(C(=O)N[C@@H]2[C@H](N)CCCC2(F)F)cc1-c1cnc2ccccn12 [Example 15, N-[(1R,6R)-6-amino-2,2-difluorocyclohexyl]-4-(imidazo[1,2-a]pyridin-3-yl)-5-methylthiophene-2-carboxamide] | > 10000
8 | N[C@@H]1CCCC(F)(F)[C@@H]1NC(=O)c1cc(-c2cnc3cccnn23)c(Cc2ccccc2)s1 [Example 19, N-[(1R,6R)-6-amino-2,2-difluorocyclohexyl]-5-benzyl-4-(imidazo[1,2-b]pyridazin-3-yl)thiophene-2-carboxamide] | > 10000
9 | Cc1sc(C(=O)NC2CS(=O)(=O)CC[C@H]2N)cc1-c1cnc2cccnn12 (stereo partly drawn) [Example 9] | > 10000
